# Test results from patent publication US12742284B2, “Antimicrobial polymer coatings on textiles” (MICROBAN PRODUCTS COMPANY, priority 2022, dated 2023).
# Tested on: Kp
# Assay: AATCC TM 100 antimicrobial test on treated polyester after home launderings
# Settings: for AATCC TM 100, Antimicrobial Test result (Kp - log reduction): 1.5% o.w.f. on polyester
compound,measurement,setting,value
[Na+].[O-][n+]1ccccc1[S-] [Sodium Pyrithione],"AATCC TM 100, Antimicrobial Test result (Kp - log reduction)",1 HL,0.5 log reduction
same,"AATCC TM 100, Antimicrobial Test result (Kp - log reduction)",25 HL,0 log reduction
same,antimicrobial performance (in words),after one cycle of home laundering,little efficacy
same,antimicrobial performance (in words),after twenty-five home launderings,did not have antimicrobial performance
